In brackets after ≈: the same amount, converted by molar mass. Structures can show the parent of a compound that is named as a salt.
Experiments:
Experiment in all cases: In vitro antibacterial activity, MIC by agar dilution
Assay type in all cases: cell-based
Settings in all cases: BHI agar, 35-37°C, 20-24 hours, unit assumed
[1] = tested on: Acinetobacter calcoaceticus CMX 669
Procedure: (§1) Each plate was inoculated with 1:100 (or 1:10 for slow growing strains, primarily Micrococcus and Streptococcus) dilutions of up to 32 different microorganisms, using a Steers replicator block calibrated to deliver approximately 10^4 colony forming units (CFUs). The inoculated plates were incubated at from about 35°C to about 37°C for approximately 20-24 hours. In addition, a control plate using BHI agar containing no test compound was prepared and incubated at the beginning and at the end of each test. Ciprofloxacin was used as the control antibiotic.
(§2) The MIC was defined as the lowest concentration of test compound yielding no growth (a slight haze or sparsely isolated colonies at the inoculum spot) as compared to the growth control containing no test compound.

[2] = tested on: Enterobacter aerogenes ATCC 13048
Procedure: as §1, §2

[3] = tested on: Enterococcus faecium ATCC 8043
Procedure: as §1, §2

Escherichia coli DC-2 = tested on: Escherichia coli DC-2
Procedure: as §1, §2

Escherichia coli JUHL = tested on: Escherichia coli JUHL
Procedure: as §1, §2

Escherichia coli KNK 437 = tested on: Escherichia coli KNK 437
Procedure: as §1, §2

Escherichia coli SS = tested on: Escherichia coli SS
Procedure: as §1, §2

[4] = tested on: Klebsiella pneumoniae ATCC 8045
Procedure: as §1, §2

[5] = tested on: Micrococcus luteus ATCC 4698
Procedure: as §1, §2

[6] = tested on: Micrococcus luteus ATCC 9341
Procedure: as §1, §2

[7] = tested on: Providencia stuartii CMX 640
Procedure: as §1, §2

[8] = tested on: Pseudomonas aeruginosa A5007
Procedure: as §1, §2

[9] = tested on: Pseudomonas aeruginosa BMH10
Procedure: as §1, §2

[10] = tested on: Pseudomonas aeruginosa K799/61
Procedure: as §1, §2

[11] = tested on: Pseudomonas aeruginosa K799/WT
Procedure: as §1, §2

Pseudomonas cepacia 296I = tested on: Pseudomonas cepacia 296I
Procedure: as §1, §2

[12] = tested on: Staphylococcus aureus 642A
Procedure: as §1, §2

[13] = tested on: Staphylococcus aureus A5177
Procedure: as §1, §2

[14] = tested on: Staphylococcus aureus ATCC 6538P
Procedure: as §1, §2

[15] = tested on: Staphylococcus aureus CMX 553
Procedure: as §1, §2

[16] = tested on: Staphylococcus aureus NCTC 10649
Procedure: as §1, §2

[17] = tested on: Staphylococcus epidermidis 3519
Procedure: as §1, §2

[18] = tested on: Streptococcus agalactaciae CMX 508
Procedure: as §1, §2

[19] = tested on: Streptococcus bovis A5169
Procedure: as §1, §2

[20] = tested on: Streptococcus pyrogenes 2548 INDUC
Procedure: as §1, §2

[21] = tested on: Streptococcus pyrogenes CONST
Procedure: as §1, §2

[22] = tested on: Streptococcus pyrogenes EES61
Procedure: as §1, §2

Escherichia coli H560 = tested on: Escherichia coli H560
Procedure: as §1, §2

[23] = tested on: Staphylococcus aureus 1775
Procedure: as §1, §2

[24] = tested on: Staphylococcus aureus A-5278
Procedure: as §1, §2

[25] = tested on: Pseudomonas aeruginosa 2862
Procedure: as §1, §2

Row | Compound | MIC values [1] [µg/mL] | MIC values [2] [µg/mL] | MIC values [3] [µg/mL] | MIC values (Escherichia coli DC-2) [µg/mL] | MIC values (Escherichia coli JUHL) [µg/mL] | MIC values (Escherichia coli KNK 437) [µg/mL] | MIC values (Escherichia coli SS) [µg/mL] | MIC values [4] [µg/mL] | MIC values [5] [µg/mL] | MIC values [6] [µg/mL] | MIC values [7] [µg/mL] | MIC values [8] [µg/mL] | MIC values [9] [µg/mL] | MIC values [10] [µg/mL] | MIC values [11] [µg/mL] | MIC values (Pseudomonas cepacia 296I) [µg/mL] | MIC values [13] [µg/mL] | MIC values [17] [µg/mL] | MIC values [19] [µg/mL] | MIC values [20] [µg/mL] | also measured
1 | CN1CCN(c2nc3c(-c4ccc(F)cc4)cc(C(=O)O)c(=O)n3cc2F)CC1 [Example 1, 3-Fluoro-9-(4-fluorophenyl)-2-(4-methylpiperazin-1-yl)-6H-6-oxo-pyrido[1,2-a]pyrimidine-7-carboxylic acid] | 0.78 (≈ 1.95 µM) | 0.78 (≈ 1.95 µM) | 25 (≈ 62.4 µM) | 12.5 (≈ 31.2 µM) | 0.39 (≈ 0.974 µM) | 6.2 (≈ 15.5 µM) | < 0.05 | 0.2 (≈ 0.5 µM) | 25 (≈ 62.4 µM) | 50 (≈ 125 µM) | 25 (≈ 62.4 µM) | 6.2 (≈ 15.5 µM) | 6.2 (≈ 15.5 µM) | 0.39 (≈ 0.974 µM) | 3.1 (≈ 7.74 µM) | 25 (≈ 62.4 µM) | 0.78 (≈ 1.95 µM) | 0.78 (≈ 1.95 µM) | 25 (≈ 62.4 µM) | 3.1 (≈ 7.74 µM) | MIC values [12]: 0.78 µg/mL (≈ 1.95 µM); MIC values [14]: 0.39 µg/mL (≈ 0.974 µM); MIC values [15]: 0.78 µg/mL (≈ 1.95 µM); MIC values [16]: 0.39 µg/mL (≈ 0.974 µM); MIC values [18]: 12.5 µg/mL (≈ 31.2 µM); MIC values [21]: 6.2 µg/mL (≈ 15.5 µM); MIC values [22]: 6.2 µg/mL (≈ 15.5 µM)
2 | CN1CCN(c2nc3c(-c4ccc(F)cc4)cc(C(=O)O)c(=O)n3cc2F)CC1 [Example 2, 3-Fluoro-9-(4-fluorophenyl)-2-(4-methylpiperazin-1-yl)-6H-6-oxo-pyrido[1,2-a]pyrimidine-7-carboxylic acid] | 0.78 (≈ 1.95 µM) | 0.78 (≈ 1.95 µM) | 25 (≈ 62.4 µM) | 12.5 (≈ 31.2 µM) | 0.39 (≈ 0.974 µM) | 6.2 (≈ 15.5 µM) | 0.05 (≈ 0.125 µM) | 0.2 (≈ 0.5 µM) | 25 (≈ 62.4 µM) | 50 (≈ 125 µM) | 25 (≈ 62.4 µM) | 6.2 (≈ 15.5 µM) | 6.2 (≈ 15.5 µM) | 0.39 (≈ 0.974 µM) | 3.1 (≈ 7.74 µM) | 25 (≈ 62.4 µM) | 0.78 (≈ 1.95 µM) | 0.78 (≈ 1.95 µM) | 25 (≈ 62.4 µM) | 3.1 (≈ 7.74 µM) | MIC values (Escherichia coli H560): 0.39 µg/mL (≈ 0.974 µM); MIC values [23]: 25 µg/mL (≈ 62.4 µM); MIC values [12]: 0.78 µg/mL (≈ 1.95 µM); MIC values [24]: 0.78 µg/mL (≈ 1.95 µM); MIC values [14]: 0.39 µg/mL (≈ 0.974 µM); MIC values [15]: 0.78 µg/mL (≈ 1.95 µM); MIC values [16]: 0.39 µg/mL (≈ 0.974 µM); MIC values [18]: 12.5 µg/mL (≈ 31.2 µM); MIC values [21]: 6.2 µg/mL (≈ 15.5 µM); MIC values [22]: 6.2 µg/mL (≈ 15.5 µM)
3 | CCc1cc(C(=O)O)c(=O)n2ccc(N3CCC(N)C3)cc12.Cl (stereo not drawn) [Example 62, 8-(3-Amino-1-pyrrolidinyl)-1-ethyl-4H-quinolizin-4-one-3-carboxylic acid hydrochloride] | 0.78 | 3.1 | 50 | 25 | 3.1 | 25 | 0.39 | 3.1 | 12.5 | 25 | 25 | 6.2 | 6.2 | 0.05 | 6.2 | 3.1 | 12.5 | 12.5 | 25 | 25 | MIC values (Escherichia coli H560): 3.1 µg/mL; MIC values [12]: 6.2 µg/mL; MIC values [14]: 3.1 µg/mL; MIC values [15]: 12.5 µg/mL; MIC values [16]: 6.2 µg/mL; MIC values [18]: 25 µg/mL; MIC values [21]: 25 µg/mL; MIC values [22]: 25 µg/mL
4 | CCc1cc(C(=O)O)c(=O)n2ccc(N3CCNC(C)C3)cc12.Cl (stereo not drawn) [Example 64, 1-Ethyl-8-(3-methyl-1-piperazinyl)-4H-quinolizin-4-one-3-carboxylic acid hydrochloride] | 50 | 6.2 | 100 | 100 | 6.2 | 100 | 1.56 | 6.2 | 25 | 25 | > 100 | 50 | 25 | 6.2 | 25 | 100 | 50 | 50 | 25 | 50 | MIC values (Escherichia coli H560): 12.5 µg/mL; MIC values [14]: 25 µg/mL; MIC values [15]: 50 µg/mL; MIC values [18]: 50 µg/mL; MIC values [21]: 50 µg/mL; MIC values [22]: 50 µg/mL
5 | CCc1cc(C(=O)O)c(=O)n2ccc(N3CCN(C)CC3)cc12.Cl [Example 65, 1-Ethyl-8-(4-methylpiperazin-1-yl)-4H-quinolizin-4-one-3-carboxylic acid hydrochloride] | 25 | 12.5 | 50 | > 100 | 12.5 | 100 | 1.56 | 6.2 | 25 | 25 | > 100 | 25 | 25 | 25 | 25 | 100 | 25 | 25 | 100 | 50 | MIC values [14]: 12.5 µg/mL; MIC values [15]: 50 µg/mL; MIC values [18]: 100 µg/mL; MIC values [21]: 50 µg/mL; MIC values [22]: 100 µg/mL
6 | NC1CCN(c2nc3c(C4CC4)cc(C(=O)O)c(=O)n3cc2F)C1 (stereo not drawn) [Example 158, 2-(3-Aminopyrrolidin-1-yl)-9-cyclopropyl-3-fluoro-6H-6-oxo-pyrido[1,2-a]pyrimidine-7-carboxylic acid] | – | 0.1 (≈ 0.301 µM) | – | – | 0.02 (≈ 0.0602 µM) | – | 0.01 (≈ 0.0301 µM) | 0.05 (≈ 0.15 µM) | – | – | 3.1 (≈ 9.33 µM) | 0.2 (≈ 0.602 µM) | – | – | – | – | – | 0.39 (≈ 1.17 µM) | 6.2 (≈ 18.7 µM) | 0.78 (≈ 2.35 µM) | MIC values [25]: 50 µg/mL (≈ 150 µM); MIC values [23]: 100 µg/mL (≈ 301 µM); MIC values [12]: 0.2 µg/mL (≈ 0.602 µM); MIC values [24]: 0.78 µg/mL (≈ 2.35 µM)
7 | NC1CCN(c2nc3c(-c4ccc(F)cc4F)cc(C(=O)O)c(=O)n3cc2F)C1 (stereo not drawn) [Example 162, 2-(3-Aminopyrrolidin-1-yl)-9-(2,4-difluorophenyl)-3-fluoro-6H-6-oxopyrido[1,2-a]pyrimidine-7-carboxylic acid trifluoroacetic acid salt] | – | – | – | – | – | – | – | – | – | – | – | – | – | – | – | – | – | – | – | – | MIC values ([1]; trifluoroacetic acid salt): 0.1 µg/mL; MIC values (Escherichia coli DC-2; trifluoroacetic acid salt): 0.39 µg/mL; MIC values (Escherichia coli KNK 437; trifluoroacetic acid salt): 0.39 µg/mL; MIC values ([4]; trifluoroacetic acid salt): 0.02 µg/mL; MIC values ([6]; trifluoroacetic acid salt): 6.2 µg/mL; MIC values ([8]; trifluoroacetic acid salt): 0.39 µg/mL; MIC values ([11]; trifluoroacetic acid salt): 0.39 µg/mL; MIC values (Pseudomonas cepacia 296I; trifluoroacetic acid salt): 6.2 µg/mL; MIC values ([23]; trifluoroacetic acid salt): > 100 µg/mL; MIC values ([12]; trifluoroacetic acid salt): 0.2 µg/mL; MIC values ([14]; trifluoroacetic acid salt): 0.1 µg/mL; MIC values ([15]; trifluoroacetic acid salt): 0.2 µg/mL; MIC values ([16]; trifluoroacetic acid salt): 0.1 µg/mL; MIC values ([17]; trifluoroacetic acid salt): 0.2 µg/mL; MIC values ([18]; trifluoroacetic acid salt): 0.78 µg/mL; MIC values ([20]; trifluoroacetic acid salt): 0.2 µg/mL
8 | O=C(O)c1cc(C2CC2)c2nc(N3CCOCC3)c(F)cn2c1=O [Example 165, 9-Cyclopropyl-3-fluoro-2-(morpholin-1-yl)-6H-6-oxo-pyrido[1,2-a]pyrimidine-7-carboxylic acid] | 6.2 (≈ 18.6 µM) | 3.1 (≈ 9.3 µM) | > 100 | > 100 | 3.1 (≈ 9.3 µM) | > 100 | 0.2 (≈ 0.6 µM) | 0.39 (≈ 1.17 µM) | > 100 | > 100 | > 100 | 25 (≈ 75 µM) | 50 (≈ 150 µM) | 3.1 (≈ 9.3 µM) | 25 (≈ 75 µM) | 25 (≈ 75 µM) | 6.2 (≈ 18.6 µM) | 6.2 (≈ 18.6 µM) | > 100 | > 100 | MIC values (Escherichia coli H560): 3.1 µg/mL (≈ 9.3 µM); MIC values [23]: > 100 µg/mL; MIC values [12]: 6.2 µg/mL (≈ 18.6 µM); MIC values [24]: 6.2 µg/mL (≈ 18.6 µM); MIC values [14]: 6.2 µg/mL (≈ 18.6 µM); MIC values [15]: 6.2 µg/mL (≈ 18.6 µM); MIC values [16]: 6.2 µg/mL (≈ 18.6 µM); MIC values [18]: > 100 µg/mL; MIC values [21]: > 100 µg/mL; MIC values [22]: > 100 µg/mL
